Experimental findings from PubChem BioAssay AID1745844 (Carcinogenic Potency Database (CPDB), 2022) are described below.

Structures are written as SMILES. Calls of active or inactive are those of the source. The rule behind the calls is not given here.

This data set relates to rodent lifetime carcinogenesis bioassay, tumor incidence TD50. Briefly: chronic cancer bioassays in animals – CPDB, compiled studies (AID 1745844).

What is called TD50 is the 50% point of the dose-response relation for the toxic effect studied.

Regarding `Cc1cnc2ccc3c(nc(N)n3C)c2n1`, the TD50 by setting is: (mouse, strain CDF1, females, in feed, site: all sites, lesion: lymphoma and leukemia, combined, dosed 84 weeks, study length 84 weeks) 6820 mg/kg/day; (mouse, strain CDF1, females, in feed, site: liver, lesion: hepatocellular adenoma, dosed 84 weeks, study length 84 weeks) 14.2 mg/kg/day; (mouse, strain CDF1, females, in feed, site: liver, lesion: hepatocellular carcinoma, dosed 84 weeks, study length 84 weeks) 27.8 mg/kg/day; (mouse, strain CDF1, females, in feed, site: liver, lesion: several types, types named in the paper, dosed 84 weeks, study length 84 weeks) 14.2 mg/kg/day; (mouse, strain CDF1, females, in feed, site: lung, lesion: adenocarcinoma, dosed 84 weeks, study length 84 weeks) 257 mg/kg/day; (mouse, strain CDF1, females, in feed, site: lung, lesion: adenoma, dosed 84 weeks, study length 84 weeks) 143 mg/kg/day. Besides, the TD50 by setting is: (mouse, strain CDF1, females, in feed, site: lung, lesion: several types, types named in the paper, dosed 84 weeks, study length 84 weeks) 77.2 mg/kg/day; (mouse, strain CDF1, males, in feed, site: all sites, lesion: lymphoma and leukemia, combined, dosed 84 weeks, study length 84 weeks) 109 mg/kg/day; (mouse, strain CDF1, males, in feed, site: liver, lesion: hepatocellular adenoma, dosed 84 weeks, study length 84 weeks) 86.9 mg/kg/day; (mouse, strain CDF1, males, in feed, site: liver, lesion: hepatocellular carcinoma, dosed 84 weeks, study length 84 weeks) 102 mg/kg/day; (mouse, strain CDF1, males, in feed, site: liver, lesion: several types, types named in the paper, dosed 84 weeks, study length 84 weeks) 83.8 mg/kg/day; (mouse, strain CDF1, males, in feed, site: lung, lesion: adenocarcinoma, dosed 84 weeks, study length 84 weeks) 236 mg/kg/day. In addition, the TD50 runs as follows: (mouse, strain CDF1, males, in feed, site: lung, lesion: adenoma, dosed 84 weeks, study length 84 weeks) 262 mg/kg/day; (mouse, strain CDF1, males, in feed, site: lung, lesion: several types, types named in the paper, dosed 84 weeks, study length 84 weeks) 134 mg/kg/day; (rat, strain F344/DuCrj, females, in feed, site: Zymbal's gland, lesion: squamous-cell carcinoma, dosed 61 weeks, study length 61 weeks) 6.31 mg/kg/day; (rat, strain F344/DuCrj, females, in feed, site: clitoral gland, lesion: squamous-cell carcinoma, dosed 61 weeks, study length 61 weeks) 4.72 mg/kg/day; (rat, strain F344/DuCrj, females, in feed, site: liver, lesion: neoplastic nodule, dosed 61 weeks, study length 61 weeks) 6.31 mg/kg/day; (rat, strain F344/DuCrj, females, in feed, site: skin, lesion: squamous-cell carcinoma, dosed 61 weeks, study length 61 weeks) 87.2 mg/kg/day. Besides, the TD50 is, setting by setting: (rat, strain F344/DuCrj, males, in feed, site: Zymbal's gland, lesion: sebaceous adenoma, dosed 56 weeks, study length 56 weeks) 38.9 mg/kg/day; (rat, strain F344/DuCrj, males, in feed, site: Zymbal's gland, lesion: several types, types named in the paper, dosed 56 weeks, study length 56 weeks) 4.91 mg/kg/day; (rat, strain F344/DuCrj, males, in feed, site: Zymbal's gland, lesion: several types, types named in the paper, dosed 61 weeks, study length 61 weeks) 2.72 mg/kg/day; (rat, strain F344/DuCrj, males, in feed, site: Zymbal's gland, lesion: squamous-cell carcinoma, dosed 56 weeks, study length 56 weeks) 8.6 mg/kg/day; (rat, strain F344/DuCrj, males, in feed, site: Zymbal's gland, lesion: squamous-cell carcinoma, dosed 61 weeks, study length 61 weeks) 3.59 mg/kg/day; (rat, strain F344/DuCrj, males, in feed, site: Zymbal's gland, lesion: squamous-cell papilloma, dosed 56 weeks, study length 56 weeks) 29.1 mg/kg/day. The TD50 reads like this: (rat, strain F344/DuCrj, males, in feed, site: Zymbal's gland, lesion: squamous-cell papilloma, dosed 61 weeks, study length 61 weeks) 35.8 mg/kg/day; (rat, strain F344/DuCrj, males, in feed, site: liver, lesion: hepatocellular adenoma, dosed 56 weeks, study length 56 weeks) 3.15 mg/kg/day; (rat, strain F344/DuCrj, males, in feed, site: liver, lesion: hepatocellular carcinoma, dosed 56 weeks, study length 56 weeks) 2.91 mg/kg/day; (rat, strain F344/DuCrj, males, in feed, site: liver, lesion: hepatocellular carcinoma, dosed 61 weeks, study length 61 weeks) 1.26 mg/kg/day; (rat, strain F344/DuCrj, males, in feed, site: liver, lesion: neoplastic nodule, dosed 61 weeks, study length 61 weeks) 73.5 mg/kg/day; (rat, strain F344/DuCrj, males, in feed, site: liver, lesion: several types, types named in the paper, dosed 56 weeks, study length 56 weeks) 1.24 mg/kg/day. The TD50 reads like this: (rat, strain F344/DuCrj, males, in feed, site: skin, lesion: basal-cell carcinoma, dosed 61 weeks, study length 61 weeks) 73.5 mg/kg/day; (rat, strain F344/DuCrj, males, in feed, site: skin, lesion: sebaceous adenoma, dosed 56 weeks, study length 56 weeks) 58.8 mg/kg/day; (rat, strain F344/DuCrj, males, in feed, site: skin, lesion: several types, types named in the paper, dosed 56 weeks, study length 56 weeks) 12 mg/kg/day; (rat, strain F344/DuCrj, males, in feed, site: skin, lesion: several types, types named in the paper, dosed 61 weeks, study length 61 weeks) 8.76 mg/kg/day; (rat, strain F344/DuCrj, males, in feed, site: skin, lesion: squamous-cell carcinoma, dosed 56 weeks, study length 56 weeks) 59.2 mg/kg/day; (rat, strain F344/DuCrj, males, in feed, site: skin, lesion: squamous-cell carcinoma, dosed 61 weeks, study length 61 weeks) 13.1 mg/kg/day. Further, the TD50 reads like this: (rat, strain F344/DuCrj, males, in feed, site: skin, lesion: squamous-cell papilloma, dosed 56 weeks, study length 56 weeks) 59.2 mg/kg/day; (rat, strain F344/DuCrj, males, in feed, site: skin, lesion: squamous-cell papilloma, dosed 61 weeks, study length 61 weeks) 73.5 mg/kg/day; (rat, strain F344/DuCrj, males, in feed, site: skin, lesion: trichoepithelioma, dosed 56 weeks, study length 56 weeks) 38.9 mg/kg/day. Further, under “rat, strain F344/DuCrj, males, in feed, site: liver, lesion: several types, types named in the paper, dosed 61 weeks, study length 61 weeks”, the carcinogen call is “positive”.
Regarding `C=COC(N)=O`, the TD50 was 0.147 mg/kg/day (mouse, strain C57BL/10J, females, i.p., site: liver, lesion: hemangioma, dosed 35 weeks, study length 59 weeks); 0.138 mg/kg/day (mouse, strain C57BL/10J, females, i.p., site: liver, lesion: hemangiosarcoma, dosed 35 weeks, study length 59 weeks); 4.99 mg/kg/day (mouse, strain C57BL/10J, females, i.p., site: liver, lesion: hepatocellular adenoma, dosed 35 weeks, study length 59 weeks); 0.503 mg/kg/day (mouse, strain C57BL/10J, females, i.p., site: liver, lesion: hepatocellular carcinoma, dosed 35 weeks, study length 59 weeks); 0.112 mg/kg/day (mouse, strain C57BL/10J, males, i.p., site: liver, lesion: hemangioma, dosed 35 weeks, study length 59 weeks); 0.118 mg/kg/day (mouse, strain C57BL/10J, males, i.p., site: liver, lesion: hemangiosarcoma, dosed 35 weeks, study length 59 weeks). Further, the TD50 is 2.69 mg/kg/day (mouse, strain C57BL/10J, males, i.p., site: liver, lesion: hepatocellular adenoma, dosed 35 weeks, study length 59 weeks) and 0.629 mg/kg/day (mouse, strain C57BL/10J, males, i.p., site: liver, lesion: hepatocellular carcinoma, dosed 35 weeks, study length 59 weeks).
On to `[Cl][Hg][Cl]`, for which the TD50 (mouse, strain B6C3F1, females, by gavage, site: any site (literature study), lesion: several types, types named in the paper, dosed 103 weeks, study length 104 weeks) was 5.83 mg/kg/day (inactive); the TD50 (mouse, strain B6C3F1, females, by gavage, site: lung, lesion: alveolar/bronchiolar adenoma + alveolar/bronchiolar carcinoma, dosed 103 weeks, study length 104 weeks) was determined as 40.8 mg/kg/day; the TD50 (mouse, strain B6C3F1, males, by gavage, site: kidney, lesion: tubular-cell adenocarcinoma, dosed 103 weeks, study length 104 weeks) is 240 mg/kg/day; the TD50 (mouse, strain B6C3F1, males, by gavage, site: kidney, lesion: tubule adenoma + tubular-cell adenocarcinoma, dosed 103 weeks, study length 104 weeks) turned out to be 81.6 mg/kg/day; the TD50 (mouse, strain B6C3F1, males, by gavage, site: kidney, lesion: tubule adenoma, dosed 103 weeks, study length 104 weeks) is 125 mg/kg/day; the TD50 (mouse, strain Charles River CD1, females, in drinking water, site: all sites, lesion: lymphoma and leukemia, combined, dosed 118 weeks, study length 118 weeks) is 3.58 mg/kg/day (inactive). Moreover, the TD50 is, setting by setting: (mouse, strain Charles River CD1, females, in drinking water, site: any site (literature study), lesion: malignant tumor, dosed 118 weeks, study length 118 weeks) 5.55 mg/kg/day (inactive); (mouse, strain Charles River CD1, females, in drinking water, site: any site (literature study), lesion: several types, types named in the paper, dosed 118 weeks, study length 118 weeks) 2.42 mg/kg/day (inactive); (mouse, strain Charles River CD1, males, in drinking water, site: any site (literature study), lesion: several types, types named in the paper, dosed 119 weeks, study length 119 weeks) 3.2 mg/kg/day (inactive); (mouse, strain Charles River CD1, males, in drinking water, site: lung, lesion: one or several types, types not named, dosed 119 weeks, study length 119 weeks) 11.2 mg/kg/day (inactive); (rat, strain Fischer 344, females, by gavage, site: forestomach, lesion: squamous-cell papilloma, dosed 103 weeks, study length 104 weeks) 51.8 mg/kg/day; (rat, strain Fischer 344, females, by gavage, site: liver, lesion: hepatocellular adenoma + hepatocellular carcinoma + neoplastic nodule, dosed 103 weeks, study length 104 weeks) 105 mg/kg/day. The TD50 (rat, strain Fischer 344, males, by gavage, site: adrenal medulla, lesion: pheochromocytoma benign, bilateral + pheochromocytoma, benign, dosed 103 weeks, study length 104 weeks) amounted to 1.56 mg/kg/day; the TD50 (rat, strain Fischer 344, males, by gavage, site: adrenal medulla, lesion: pheochromocytoma benign, bilateral + pheochromocytoma, complex + pheochromocytoma, malignant + pheochromocytoma malignant, bil, dosed 103 weeks, study length 104 weeks) is 1.6 mg/kg/day; the TD50 (rat, strain Fischer 344, males, by gavage, site: any site (literature study), lesion: several types, types named in the paper, dosed 103 weeks, study length 104 weeks) amounted to 1.04 mg/kg/day; the TD50 (rat, strain Fischer 344, males, by gavage, site: forestomach, lesion: squamous-cell papilloma, dosed 103 weeks, study length 104 weeks) is 3.12 mg/kg/day; the TD50 (rat, strain Fischer 344, males, by gavage, site: liver, lesion: hepatocellular adenoma + hepatocellular carcinoma + neoplastic nodule, dosed 103 weeks, study length 104 weeks) was found to be 10.3 mg/kg/day; the TD50 (rat, strain Fischer 344, males, by gavage, site: testis, lesion: interstitial-cell adenoma, bilateral + interstitial-cell adenoma, dosed 103 weeks, study length 104 weeks) came to 0.825 mg/kg/day. Moreover, the TD50 runs as follows: (rat, strain Fischer 344, males, by gavage, site: thyroid gland, lesion: follicular-cell adenoma + follicular-cell carcinoma, dosed 103 weeks, study length 104 weeks) 5.25 mg/kg/day; (rat, strain Fischer 344, males, by gavage, site: thyroid gland, lesion: follicular-cell adenoma, dosed 103 weeks, study length 104 weeks) 5.98 mg/kg/day; (rat, strain Fischer 344, males, by gavage, site: thyroid gland, lesion: follicular-cell carcinoma, dosed 103 weeks, study length 104 weeks) 7.32 mg/kg/day. The carcinogen call reads like this: (mouse, strain Charles River CD1, females, in drinking water, site: lung, lesion: one or several types, types not named, dosed 118 weeks, study length 118 weeks) “negative (inactive)”; (mouse, strain Charles River CD1, males, in drinking water, site: any site (literature study), lesion: malignant tumor, dosed 119 weeks, study length 119 weeks) “negative (inactive)”.
